# Test results from US10273228B2, “Hepatitis B viral assembly effectors” (Indiana University Research and Technology Corporation, priority 2015, dated 2019).
# Experiments:
# [1] = tested on: HBV viral load, AD38 cells; test: Activity of test compounds on viral production from AD38 cells (viral load by quantitative PCR of the core sequence in supernatant); assay type: cell-based, Hepatitis B virus; settings: Hepatitis B virus, 144 h, 10 μM compound, 6 days at 37° C., vs DMSO control wells; Table 6; read-out: AD38 Viral Load (CpAM/DMSO %) at 10 μM
# Description: (§1) AD38 cells were then re-suspended with 10 mL of treatment medium and counted. Wells of a collagen coated 96-well NUNC microtiter plate were seeded at 50,000/well in 180 μL of treatment medium, and 20 μL of either 10% DMSO (Control) or a 10× solution of test compound in 10% DMSO in treatment media was added for a final compound concentration 1, 3, or 10 μM (1.0% final [DMSO]) and plates were incubated for 6 days at 37° C.
# Subsequently viral load production was assayed by quantitative PCR of the core sequence. Briefly, 5 μL of clarified supernatant was added to a PCR reaction mixture that contained forward primers HBV-f 5′-CTGTGCCTTGGGTGGCTTT-3′, Reverse primers HBV-r 5′-[…]-3′ and Fluorescent TaqMan™ Probes HBV-probe 5′-FAM/AGCTCCAAA/ZEN/[…]/3IABkFQ-3′ in Quanta Biosciences PerfeCTa® qPCR Toughmix®, and was subsequently on an Applied Biosystems VIIA7 in a final volume of 20 μL. The PCR mixture was incubated at 45° C. for 5 minutes, then 95° C. for 10 min, followed by 40 cycles of 10 seconds at 95° C. and 20 seconds at 60° C. Viral load was quantitated against known standards by using ViiA™ 7 Software. Viral load in the supernatant from wells with treated cells were compared against viral load in supernatant from DMSO control wells (≥3 per plate).
# [2] = tested on: AD38 cells; test: AD38 viability normalized to DMSO control; assay type: cell-based; settings: 10 μM compound, vs DMSO control; Table 6
# Description: as §1
Structure (SMILES),activity at 10 µM [1] [%],AD38 Viability Normalized Result (CPAM/DMSO %) at 10 μM [2] [%]
Cc1ccc(Nc2cc(C)nc(N3CCN(S(=O)(=O)c4cccnc4)CC3)n2)cc1 [Compound 1133],35,108
Cc1ccc(Nc2cc(C)nc(N3CCN(S(=O)(=O)c4c[nH]cn4)CC3)n2)cc1 [Compound 1134],32,123
Cc1ccc(Nc2cc(C)nc(N3CCN(S(=O)(=O)c4cccc5ccccc45)CC3)n2)cc1 [Compound 1135],16,107
Cc1ccc(Nc2cc(C)nc(N3CCN(S(=O)(=O)c4ccc(Oc5ccccc5)cc4)CC3)n2)cc1 [Compound 1136],24,113
COc1ccc(S(=O)(=O)N2CCN(c3nc(Nc4ccc(C)cc4)cc(N(C)C)n3)CC2)cc1 [Compound 1143],8,107
COc1ccc(S(=O)(=O)N2CCN(c3nc(Nc4ccc(C)cc4)cc(N4CCCC4)n3)CC2)cc1 [Compound 1144],12,100
Cc1ccc(Nc2cc(C)nc(N3CCN(S(=O)(=O)c4cccs4)CC3)n2)cc1 [Compound 1146],15,106
COc1ccc(S(=O)(=O)N2CCN(c3cc(C)nc(Nc4ccc(C)cc4)n3)CC2)cc1 [Compound 1150],4,89
COc1cccc(S(=O)(=O)N2CCN(c3cc(C)nc(Nc4ccc(C)cc4)n3)CC2)c1 [Compound 1151],1,73
COc1ccc(S(=O)(=O)N2CCN(c3nc(C)cc(Oc4ccc(C)cc4)n3)CC2)cc1 [Compound 1152],20,107
Cc1ccc(Nc2cc(C)nc(N3CCN(S(=O)(=O)c4ccccc4C)CC3)n2)cc1 [Compound 1153],21,109
COc1ccc(S(=O)(=O)N2CCN(c3nc(Nc4ccc(C)cc4)cc(OC)n3)CC2)cc1 [Compound 1157],35,96
COc1ccc(S(=O)(=O)N2CCN(c3cccc(Nc4ccc(C)cc4)n3)CC2)cc1 [Compound 1158],51,92
COc1ccc(S(=O)(=O)N2CCN(c3nc(C)cc(Sc4ccc(C)cc4)n3)CC2)cc1 [Compound 1159],81,95
"COc1ccc(S(=O)(=O)N2CCN(c3nc(C)cc(S(=O)(=O)c4ccc(C)cc4)n3)CC2)cc1 [Compound 1160, 2-(4-((4-methoxyphenyl)sulfonyl)piperazin-1-yl)-4-methyl-6-tosylpyrimidine]",60,110
Cc1ccc(Nc2cc(C)nc(N3CCN(S(=O)(=O)c4ccc5[nH]c(=O)[nH]c5c4)CC3)n2)cc1 [Compound 1167],36,108
COc1cccc(S(=O)(=O)N2CCN(c3cccc(Nc4ccc(C)cc4)n3)CC2)c1 [Compound 1168],51,100
COc1ccc(S(=O)(=O)N2CCN(c3cc(C)cc(Nc4ccc(C)cc4)n3)CC2)cc1 [Compound 1172],21,107
COc1cccc(S(=O)(=O)N2CCN(c3cc(C)cc(Nc4ccc(C)cc4)n3)CC2)c1 [Compound 1173],9,105
COc1ccc(S(=O)(=O)N2CCN(c3nc(Nc4ccc(C)cc4)cc(N4CCOCC4)n3)CC2)cc1 [Compound 1179],45,103

Structure (SMILES),activity at 10 µM [1] [%],AD38 Viability Normalized Result (CPAM/DMSO %) at 10 μM [2] [%]
COc1ccc(S(=O)(=O)N2CCN(c3nc(C)cc(Nc4cncnc4)n3)CC2)cc1 [Compound 1186],76,106
COc1ccc(S(=O)(=O)N2CCN(c3nc(C)cc(Nc4ccc5ccccc5c4)n3)CC2)cc1 [Compound 1188],52,105
COc1ccc(S(=O)(=O)N2CCN(c3nc(Nc4ccc(C)cc4)cc(N4CCCCC4)n3)CC2)cc1 [Compound 1190],72,83
COc1ccc(S(=O)(=O)N2CCN(c3nc(C)cc(Nc4ccc(C)nc4)n3)CC2)cc1 [Compound 1194],64,109
COc1ccc(S(=O)(=O)N2CCN(c3nc(C)cc(Nc4ccc(C)cn4)n3)CC2)cc1 [Compound 1200],81,98
COc1ccc(S(=O)(=O)N2CCN(c3nc(C)cc(Nc4ccc(-c5ccccc5)cc4)n3)CC2)cc1 [Compound 1201],90,101
"COc1ccc(S(=O)(=O)N2CCN(c3nc(Nc4ccc(C)cc4)cc(N4CCNCC4)n3)CC2)cc1 [Compound 1202, 2-(4-((4-methoxyphenyl)sulfonyl)piperazin-1-yl)-6-(piperazin-1-yl)-N-(p-tolyl) pyrimidin-4-amine]",51,106
COc1ccc(S(=O)(=O)N2CCN(c3nc(Nc4ccc(C)cc4)cc(N4CCN(C)CC4)n3)CC2)cc1 [Compound 1207],83,0
COc1ccc(S(=O)(=O)N2CCN(c3nc(Nc4ccc(C)cc4)cc(N4CCCC4=O)n3)CC2)cc1 [Compound 1212],77,94
Cc1ccc(S(=O)(=O)N2CCN(c3nc(Nc4ccc(F)cc4)cc(-n4cnnc4)n3)CC2)cc1 [Compound 1316],25,
Cc1cc(Nc2ccc(C#N)cc2)nc(N2CCN(S(=O)(=O)c3ccc(F)cc3)CC2)n1 [Compound 1319],5,
N#Cc1ccc(Nc2cc(C(F)(F)F)nc(N3CCN(S(=O)(=O)c4ccc(C(F)(F)F)cc4)CC3)n2)cc1 [Compound 1320],18,
Cc1ccc(S(=O)(=O)N2CCN(c3nc(C)cc(Nc4ccc(C#N)cc4)n3)CC2)cc1 [Compound 1321],1,
Cc1cc(Nc2ccc(C#N)cc2)nc(N2CCN(S(=O)(=O)c3ccc(C(F)(F)F)cc3)CC2)n1 [Compound 1322],35,
Cc1ccc(S(=O)(=O)N2CCN(c3nc(Nc4ccc(C#N)cc4)cc(C(F)(F)F)n3)CC2)cc1 [Compound 1324],1,
N#Cc1ccc(Nc2cc(C(F)(F)F)nc(N3CCN(S(=O)(=O)c4ccccc4)CC3)n2)cc1 [Compound 1325],1,
N#Cc1ccc(Nc2cc(C(F)(F)F)nc(N3CCN(S(=O)(=O)c4ccc(F)cc4)CC3)n2)cc1 [Compound 1326],2,
Cc1cc(Nc2ccc(C#N)cc2)nc(N2CCN(S(=O)(=O)c3ccccc3)CC2)n1 [Compound 1327],1,
Cc1cc(Nc2ccc(C#N)cc2)nc(N2CCN(S(=O)(=O)c3ccc(O)cc3)CC2)n1 [Compound 1328],9,
COc1ccc(S(=O)(=O)N2CCN(c3nc(Nc4ccc(C#N)cc4)cc(C(F)(F)F)n3)CC2)cc1 [Compound 1329],1,
